“Also recorded” adds a separate entry of the source.
Columns and labels:
[1] = system: dopamine autoreceptors; assay: GBL-model (DA synthesis rate; presynaptic dopamine autoreceptors); type: in vivo, rat
From the text: The effects on DOPA accumulation in the GBL-model is considered to reflect an event at the presynaptic dopamine autoreceptors (for further details, see Svensson et al., Nunyn-Schmiedeberg's Arch. Pharm., 334, 234(1986)).

[2] = system: central dopamine receptors; assay: Locomotor activity and DA synthesis in reserpinized rats; type: in vivo, rat; conditions: reserpinized rats
[3] = biological target: T1, D2 receptors (Rattus norvegicus, UniProt P61169); assay: D2 antagonist binding ([3H]-spiperone), rat striatum
T1 construct: Preparation of rat striatal membranes for (3H)-spiperone; from tissue; host or cells: rat striatum (striatal membranes)
Method: D2 antagonist binding. Preparation of rat striatal membranes for (3H)-spiperone (specific activity 21-24 Ci/mmol) binding was carried out in a similar manner as described for D1-binding, Hyttel et al., J. Neural. Transm., 68, 171 (1987).
IC50 values were calculated by semi-log plot and linear regression analysis.

[4] = system: DA receptor; assay: DOPA accumulation (DA synthesis rate) in non-pretreated rats after NSD 1015; conditions: for duration of the increase in brain DOPA accumulation: 50 μmol/kg
[5] = system: d-amphetamine-induced hyperactivity; assay: d-Amphetamine-induced hyperactivity in habituated rats; type: in vivo, rat
[6] = system: habituated rats; assay: Locomotor activity and behavior in habituated rats; type: in vivo, rat (male Sprague-Dawley); conditions: 60 min
Method: Footnotes Table 3. The rats were habituated to the motility meters 60 min
prior to the activity session.
Injection volumes were 5 mL/kg.
Locomotor activity was measured in rats which were habituated 60 minutes to the activity meters before drug injection. The activity was measured for the subsequent 60 minutes and expressed as % of controls (means ±SEM, n=4).

[7] = system: striatal DA release; assay: In vivo brain microdialysis in rat striatum (conscious rats); conditions: for Microdialysis in rat striatum, 5-HIAA / Microdialysis in rat striatum, DA / Microdialysis in rat striatum, DOPAC / Microdialysis in rat striatum, HVA: 50 μmol/kg s.c.
Method: In the experiments with habituated rats no NSD was administered and the animals were killed one hour after drug administration. […] The levels were expressed as % of controls (DOPAC and 5-HIAA see Table 3). The in vivo brain microdialysis experiments were performed in conscious rats as described by Waters et al., Eur. J. Pharm., 187, 425-34 (1990).
The dialysis was performed in conscious rats implanted with a dialysis probe (Carnegie Medicin, Stockholm) in the caudate. […] The perfusion media was a Ringer solution with a Ca2+ concentration of 1.2 mM. The perfusion rate was 2.0 μL/min and samples were collected every 20 minutes and analyzed on HPLC/EC. Data are expressed as % of controls, means ±SEM, n=4.

T1 sequence (P61169 whole entry): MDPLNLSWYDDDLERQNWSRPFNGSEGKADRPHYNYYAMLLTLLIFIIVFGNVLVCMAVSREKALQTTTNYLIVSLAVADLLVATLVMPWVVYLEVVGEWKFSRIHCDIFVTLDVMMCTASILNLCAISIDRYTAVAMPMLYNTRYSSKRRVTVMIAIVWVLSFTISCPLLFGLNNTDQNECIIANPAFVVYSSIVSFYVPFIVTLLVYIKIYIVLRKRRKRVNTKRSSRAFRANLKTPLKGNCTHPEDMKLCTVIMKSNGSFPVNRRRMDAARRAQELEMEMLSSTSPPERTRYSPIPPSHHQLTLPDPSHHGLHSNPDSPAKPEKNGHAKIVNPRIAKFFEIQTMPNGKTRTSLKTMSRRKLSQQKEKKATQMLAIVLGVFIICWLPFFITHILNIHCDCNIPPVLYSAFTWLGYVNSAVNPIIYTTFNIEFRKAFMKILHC

CCCN1CCC[C@@H](c2cccc(C#N)c2)C1 [S-(-)-34, S-(-)-3-(3-Cyanophenyl-N-n-propyl)piperidine]
blockade of the apomorphine effect in the GBL-model ([1]; 100 μmol/kg, sc): only a partial blockade | effect per se in the GBL-model ([1]; 200 μmol/kg, sc): inactive per se | blockade of the apomorphine effect in the GBL-model ([1]; 200 μmol/kg, sc, 40 minutes): blocked the effect of apomorphine | blockade of apomorphine in the GBL-model (in words) ([1]; rat, in vivo): blocks apomorphine in the GBL-model | DA synthesis rate / DOPA accumulation in reserpinized rats (in words) [2]: failed to affect the DOPA accumulation in reserpinized | affinity for D2 receptors (in words) ([3]; (3H)-Spiperone binding): weak, affinity to the dopamine D2 receptor site | IC50 ([3]; read-out: in vitro binding IC50, D2 -spip, [3H]-spiperone, rat striatum): 3.5 µM | duration of the increase in brain DOPA accumulation ([4]; po): 1.5 to 2.5 h | duration of the increase in brain DOPA accumulation ([4]; s.c.): 2.5 to 4.5 h | DOPA accumulation in limbic and striatal brain regions (in words) ([4]; 3.1-200 μmol/kg, s.c.): elevated in the limbic (limb.) and striatal (stri) brain regions with a maximal response equal to that observed for classical neuroleptics such as haloperidol | DOPA acc Cortex ([4]; 50 sc): 155 ± 9 % of saline controls | DOPA acc Stratium ([4]; 50 sc): 285 ± 3 % of saline controls | DOPA acc Cortex ([4]; 100 sc): 158 ± 8 % of saline controls | DOPA acc Stratium ([4]; 100 sc): 268 ± 16 % of saline controls | DOPA acc Cortex ([4]; 200 sc): 148 ± 16 % of saline controls | DOPA acc Stratium ([4]; 200 sc): 294 ± 26 % of saline controls | estimated availability ([4]; from DOPA accumulation in the striatum after sc and po administration): 50% | cortical DOPA formation (in words) ([4]; s.c.): slightly, but statistically significantly increased; also recorded: slight increase in cortical DOPA accumulation | effect on d-amphetamine-induced hyperactivity ([5]; 64 mg/kg, sc, d-amphetamine 5.0 mg/kg): failed to block the hyperactivity | effect combined with lower dose of d-amphetamine ([5]; d-amphetamine 0.5 mg/kg, sc): additive stimulatory effect | block of d-amphetamine-induced hyperactivity (in words) ([5]; even at high doses): failed to block d-amphetamine-induced hyperactivity even at high doses | effect on activation induced by high dose d-amphetamine ([5]; test compound 14 mg/kg, sc, d-amphetamine 5 mg/kg): failed to affect the strong activation | locomotor stimulation in habituated rats ([6]; % of controls): +600% | response vs control in vivo at 25 µmol/kg ([6]; Rattus norvegicus, 1 h, 25 μmol/kg po, habituated rats, read-out: Motor Activity): 231 ± 31% | Microdialysis in rat striatum, 5-HIAA ([7]; 0 min): 100 % of control | Microdialysis in rat striatum, DA ([7]; 0 min): 100 % of control | Microdialysis in rat striatum, DOPAC ([7]; 0 min): 100 % of control | Microdialysis in rat striatum, HVA ([7]; 0 min): 100 % of control | Microdialysis in rat striatum, 5-HIAA ([7]; 20 min): 110 % of control | Microdialysis in rat striatum, DA ([7]; 20 min): 180 % of control | Microdialysis in rat striatum, DOPAC ([7]; 20 min): 180 % of control | Microdialysis in rat striatum, HVA ([7]; 20 min): 140 % of control | Microdialysis in rat striatum, 5-HIAA ([7]; 40 min): 115 % of control | Microdialysis in rat striatum, DA ([7]; 40 min): 240 % of control | Microdialysis in rat striatum, DOPAC ([7]; 40 min): 250 % of control | Microdialysis in rat striatum, HVA ([7]; 40 min): 200 % of control | Microdialysis in rat striatum, 5-HIAA ([7]; 60 min): 120 % of control | Microdialysis in rat striatum, DA ([7]; 60 min): 280 % of control | Microdialysis in rat striatum, DOPAC ([7]; 60 min): 295 % of control | Microdialysis in rat striatum, HVA ([7]; 60 min): 250 % of control | Microdialysis in rat striatum, 5-HIAA ([7]; 80 min): 115 % of control | Microdialysis in rat striatum, DA ([7]; 80 min): 300 % of control | Microdialysis in rat striatum, DOPAC ([7]; 80 min): 300 % of control | Microdialysis in rat striatum, HVA ([7]; 80 min): 280 % of control | Microdialysis in rat striatum, 5-HIAA ([7]; 100 min): 115 % of control | Microdialysis in rat striatum, DA ([7]; 100 min): 280 % of control | Microdialysis in rat striatum, DOPAC ([7]; 100 min): 295 % of control | Microdialysis in rat striatum, HVA ([7]; 100 min): 300 % of control | Microdialysis in rat striatum, 5-HIAA ([7]; 120 min): 110 % of control | Microdialysis in rat striatum, DA ([7]; 120 min): 275 % of control | Microdialysis in rat striatum, DOPAC ([7]; 120 min): 280 % of control | Microdialysis in rat striatum, HVA ([7]; 120 min): 310 % of control | Microdialysis in rat striatum, 5-HIAA ([7]; 140 min): 105 % of control | Microdialysis in rat striatum, DA ([7]; 140 min): 225 % of control | Microdialysis in rat striatum, DOPAC ([7]; 140 min): 260 % of control | Microdialysis in rat striatum, HVA ([7]; 140 min): 300 % of control | Microdialysis in rat striatum, 5-HIAA ([7]; 160 min): 110 % of control | Microdialysis in rat striatum, DA ([7]; 160 min): 200 % of control | Microdialysis in rat striatum, DOPAC ([7]; 160 min): 250 % of control | Microdialysis in rat striatum, HVA ([7]; 160 min): 305 % of control | Microdialysis in rat striatum, 5-HIAA ([7]; 180 min): 110 % of control | Microdialysis in rat striatum, DA ([7]; 180 min): 190 % of control | Microdialysis in rat striatum, DOPAC ([7]; 180 min): 230 % of control | Microdialysis in rat striatum, HVA ([7]; 180 min): 280 % of control | Microdialysis in rat striatum, 5-HIAA ([7]; 200 min): 110 % of control | Microdialysis in rat striatum, DA ([7]; 200 min): 180 % of control | Microdialysis in rat striatum, DOPAC ([7]; 200 min): 215 % of control | Microdialysis in rat striatum, HVA ([7]; 200 min): 220 % of control | Microdialysis in rat striatum, 5-HIAA ([7]; 220 min): 100 % of control | Microdialysis in rat striatum, DA ([7]; 220 min): 160 % of control | Microdialysis in rat striatum, DOPAC ([7]; 220 min): 190 % of control | Microdialysis in rat striatum, HVA ([7]; 220 min): 230 % of control | duration for the increase in DOPAC and HVA ([7]; 50 μmol/kg, sc): at least 4 hours | duration of the effect (DA release) ([7]; 50 μmol/kg, sc): approximately 2.5 hours | levels of 5-HIAA, microdialysis (in words) ([7]; 50 μmol/kg, sc): No consistent changes in the levels of 5-HIAA; also recorded: failed to affect brain levels of 5-HIAA
